Assay [1] addresses rat mGlu5 (Rattus norvegicus, UniProt P31424). Description: Calcium mobilization mGlu5 assay. The conditions noted are these: for fold reduction of mGlu5 potency, secondary amine to ether: 26 relative to 13, 29 relative to 4. In kind it is cell-based. On the technique in general: Calcium assays in cells follow changes in intracellular calcium, usually with a dye or a luminescent sensor.

The target in assay [2] is mGlu2 (Homo sapiens, UniProt Q14416). Description: Selectivity versus additional mGlus. In kind it is cell-based.
Chain of mGlu2 (Q14416 19-872): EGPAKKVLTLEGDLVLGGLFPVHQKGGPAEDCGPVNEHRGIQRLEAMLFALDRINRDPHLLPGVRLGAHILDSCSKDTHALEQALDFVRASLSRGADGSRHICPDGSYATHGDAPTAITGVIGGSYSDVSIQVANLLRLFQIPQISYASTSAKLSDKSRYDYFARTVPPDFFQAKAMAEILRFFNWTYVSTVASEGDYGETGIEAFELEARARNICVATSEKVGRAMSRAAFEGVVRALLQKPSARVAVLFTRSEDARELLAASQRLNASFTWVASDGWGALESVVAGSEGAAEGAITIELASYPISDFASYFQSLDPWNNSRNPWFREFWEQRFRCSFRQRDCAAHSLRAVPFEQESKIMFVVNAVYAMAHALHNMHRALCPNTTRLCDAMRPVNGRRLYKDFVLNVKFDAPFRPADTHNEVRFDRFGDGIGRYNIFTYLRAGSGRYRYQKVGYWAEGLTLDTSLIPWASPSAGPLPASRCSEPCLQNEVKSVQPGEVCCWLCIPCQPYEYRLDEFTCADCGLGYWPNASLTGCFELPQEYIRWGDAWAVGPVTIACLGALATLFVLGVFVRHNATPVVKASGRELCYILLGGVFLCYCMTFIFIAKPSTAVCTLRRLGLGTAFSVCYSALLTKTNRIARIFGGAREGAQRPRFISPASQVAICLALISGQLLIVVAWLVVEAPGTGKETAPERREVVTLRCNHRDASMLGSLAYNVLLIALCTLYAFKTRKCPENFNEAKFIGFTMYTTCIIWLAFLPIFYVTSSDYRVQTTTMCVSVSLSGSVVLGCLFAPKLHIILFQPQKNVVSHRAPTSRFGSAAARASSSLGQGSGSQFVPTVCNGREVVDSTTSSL
Assay [3] has as its target mGlu7 (Homo sapiens, UniProt Q14831). Kind of assay: Selectivity versus additional mGlus. In kind it is cell-based.
In assay [4] the target is mGlu3 (Homo sapiens, UniProt Q14832). Description: Selectivity versus additional mGlus. In kind it is cell-based.
Chain of mGlu3 (Q14832 23-879): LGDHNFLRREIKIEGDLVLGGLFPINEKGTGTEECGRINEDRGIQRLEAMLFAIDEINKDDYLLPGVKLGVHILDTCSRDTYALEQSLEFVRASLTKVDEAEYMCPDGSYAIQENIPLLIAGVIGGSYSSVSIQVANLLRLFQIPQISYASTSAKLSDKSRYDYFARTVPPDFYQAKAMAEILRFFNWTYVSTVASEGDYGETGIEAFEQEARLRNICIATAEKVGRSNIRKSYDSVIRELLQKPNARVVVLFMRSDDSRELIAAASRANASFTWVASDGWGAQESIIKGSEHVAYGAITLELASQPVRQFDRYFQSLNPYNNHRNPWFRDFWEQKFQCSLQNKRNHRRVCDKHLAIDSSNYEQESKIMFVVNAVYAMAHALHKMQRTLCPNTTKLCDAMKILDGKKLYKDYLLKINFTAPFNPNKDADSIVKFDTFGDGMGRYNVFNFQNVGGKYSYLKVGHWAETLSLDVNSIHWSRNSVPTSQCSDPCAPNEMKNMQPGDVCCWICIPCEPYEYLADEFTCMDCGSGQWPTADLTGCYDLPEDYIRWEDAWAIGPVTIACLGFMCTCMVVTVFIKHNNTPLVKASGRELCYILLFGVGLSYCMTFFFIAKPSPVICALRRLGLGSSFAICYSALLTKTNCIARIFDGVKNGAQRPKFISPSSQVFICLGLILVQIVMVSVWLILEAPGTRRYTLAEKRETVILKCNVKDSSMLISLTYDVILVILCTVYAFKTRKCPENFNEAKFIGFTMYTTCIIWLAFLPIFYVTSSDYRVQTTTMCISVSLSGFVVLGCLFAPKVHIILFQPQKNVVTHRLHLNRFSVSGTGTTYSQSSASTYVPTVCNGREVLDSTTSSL
Assay [5] addresses mGlu4 (Homo sapiens, UniProt Q14833). Description: Selectivity versus additional mGlus. In kind it is cell-based.
Assay [6] concerns the target mGlu8 (Homo sapiens, UniProt O00222). Description: Selectivity versus additional mGlus. In kind it is cell-based.
Assay [7] concerns EGFR. The conditions noted are these: read-out: EGFR autophosphorylation IC50; A431 cells; cited from earlier work.

The IC50 is the concentration that gives 50% inhibition.

Chain of rat mGlu5 (P31424 21-1203): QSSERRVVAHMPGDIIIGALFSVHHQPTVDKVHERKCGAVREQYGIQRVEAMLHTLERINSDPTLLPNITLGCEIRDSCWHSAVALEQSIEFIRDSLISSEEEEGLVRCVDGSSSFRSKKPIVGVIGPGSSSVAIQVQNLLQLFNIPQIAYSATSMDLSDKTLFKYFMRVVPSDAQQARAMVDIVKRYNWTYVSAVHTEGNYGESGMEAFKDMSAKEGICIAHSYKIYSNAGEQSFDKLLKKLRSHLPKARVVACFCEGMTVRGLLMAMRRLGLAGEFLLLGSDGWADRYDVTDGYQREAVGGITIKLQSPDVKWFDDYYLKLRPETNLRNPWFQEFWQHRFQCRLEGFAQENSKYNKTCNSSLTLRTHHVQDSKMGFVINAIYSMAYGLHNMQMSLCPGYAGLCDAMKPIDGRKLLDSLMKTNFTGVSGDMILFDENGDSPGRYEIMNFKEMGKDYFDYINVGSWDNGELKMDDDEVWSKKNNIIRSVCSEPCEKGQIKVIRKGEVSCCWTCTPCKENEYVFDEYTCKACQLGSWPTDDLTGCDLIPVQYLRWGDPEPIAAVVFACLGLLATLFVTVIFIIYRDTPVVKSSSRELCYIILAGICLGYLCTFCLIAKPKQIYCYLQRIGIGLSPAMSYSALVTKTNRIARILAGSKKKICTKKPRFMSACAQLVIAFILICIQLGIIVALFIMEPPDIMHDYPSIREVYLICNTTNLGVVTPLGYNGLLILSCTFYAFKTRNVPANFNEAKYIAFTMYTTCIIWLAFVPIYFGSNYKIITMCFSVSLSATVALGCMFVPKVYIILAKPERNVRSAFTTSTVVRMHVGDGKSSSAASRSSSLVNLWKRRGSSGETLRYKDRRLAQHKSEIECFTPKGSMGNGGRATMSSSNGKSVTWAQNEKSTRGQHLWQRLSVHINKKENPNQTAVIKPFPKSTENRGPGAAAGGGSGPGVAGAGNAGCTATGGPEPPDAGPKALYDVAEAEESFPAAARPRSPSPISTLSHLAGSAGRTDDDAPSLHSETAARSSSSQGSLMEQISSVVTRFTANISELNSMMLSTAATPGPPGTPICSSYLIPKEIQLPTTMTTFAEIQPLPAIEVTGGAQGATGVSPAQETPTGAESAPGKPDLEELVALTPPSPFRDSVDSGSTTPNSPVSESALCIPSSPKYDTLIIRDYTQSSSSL
Chain of mGlu7 (Q14831 35-915): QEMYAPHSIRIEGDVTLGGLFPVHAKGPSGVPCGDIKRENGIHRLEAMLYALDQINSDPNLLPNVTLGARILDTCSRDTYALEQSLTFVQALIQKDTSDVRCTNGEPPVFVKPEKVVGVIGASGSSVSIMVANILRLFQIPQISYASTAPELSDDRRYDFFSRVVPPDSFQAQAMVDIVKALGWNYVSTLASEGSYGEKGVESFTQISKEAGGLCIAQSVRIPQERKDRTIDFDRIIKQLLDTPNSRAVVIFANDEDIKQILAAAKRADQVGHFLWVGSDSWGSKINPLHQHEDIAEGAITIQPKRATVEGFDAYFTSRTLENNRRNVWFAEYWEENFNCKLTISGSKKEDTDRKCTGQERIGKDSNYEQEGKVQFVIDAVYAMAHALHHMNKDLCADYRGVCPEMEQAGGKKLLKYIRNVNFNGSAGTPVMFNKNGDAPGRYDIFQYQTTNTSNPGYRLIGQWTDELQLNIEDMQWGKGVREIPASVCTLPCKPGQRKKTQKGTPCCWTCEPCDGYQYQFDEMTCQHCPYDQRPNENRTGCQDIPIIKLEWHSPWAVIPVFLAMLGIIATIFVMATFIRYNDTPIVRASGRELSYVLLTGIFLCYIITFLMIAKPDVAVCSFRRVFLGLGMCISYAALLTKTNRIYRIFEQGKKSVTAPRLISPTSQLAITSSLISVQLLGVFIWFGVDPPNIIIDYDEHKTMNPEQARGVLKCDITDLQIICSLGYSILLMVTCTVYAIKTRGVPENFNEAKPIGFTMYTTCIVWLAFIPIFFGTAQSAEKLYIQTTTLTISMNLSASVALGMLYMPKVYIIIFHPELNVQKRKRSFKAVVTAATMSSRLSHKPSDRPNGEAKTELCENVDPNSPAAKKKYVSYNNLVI
Chain of mGlu4 (Q14833 33-912): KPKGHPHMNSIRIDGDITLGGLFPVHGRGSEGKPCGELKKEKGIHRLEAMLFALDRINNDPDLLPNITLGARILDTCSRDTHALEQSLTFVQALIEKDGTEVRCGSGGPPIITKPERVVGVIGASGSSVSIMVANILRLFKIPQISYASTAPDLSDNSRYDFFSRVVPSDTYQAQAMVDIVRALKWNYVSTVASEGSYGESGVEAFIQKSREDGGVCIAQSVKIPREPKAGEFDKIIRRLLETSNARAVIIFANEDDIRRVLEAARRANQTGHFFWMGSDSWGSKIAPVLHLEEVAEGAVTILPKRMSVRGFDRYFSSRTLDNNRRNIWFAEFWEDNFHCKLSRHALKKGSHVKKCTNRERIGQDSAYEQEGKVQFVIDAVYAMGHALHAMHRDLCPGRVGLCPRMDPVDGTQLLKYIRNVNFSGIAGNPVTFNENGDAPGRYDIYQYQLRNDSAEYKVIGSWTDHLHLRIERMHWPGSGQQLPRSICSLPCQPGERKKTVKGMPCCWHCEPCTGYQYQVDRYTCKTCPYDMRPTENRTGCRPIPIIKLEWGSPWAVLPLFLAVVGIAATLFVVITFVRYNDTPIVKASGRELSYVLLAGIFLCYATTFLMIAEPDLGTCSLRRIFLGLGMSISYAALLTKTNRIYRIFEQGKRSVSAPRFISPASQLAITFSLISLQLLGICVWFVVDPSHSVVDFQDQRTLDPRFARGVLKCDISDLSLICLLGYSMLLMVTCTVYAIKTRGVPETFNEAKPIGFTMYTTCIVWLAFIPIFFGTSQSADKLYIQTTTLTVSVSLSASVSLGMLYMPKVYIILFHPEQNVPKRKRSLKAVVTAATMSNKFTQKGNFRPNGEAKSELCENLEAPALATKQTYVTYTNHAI

For the molecule `Brc1cccc(Nc2nccc3ccc(Br)cc23)c1` [Compound 15], the “fold reduction of mGlu5 activity relative to 4” value in assay [1] (relative to 6-bromoquinazoline comparator 4) was “approximately 25 fold”.

On to `Clc1cccc(Nc2ncnc3ccc(Br)cc23)c1` [Compound 1], for which, in assay [2], the “activity against mGlu2” value was “inactive”. Besides, the “activity against mGlu7” value in assay [3] is “inactive”. Also, the “activity against mGlu3” value in assay [4] is “inactive”. For the same molecule, the “activity against mGlu4” value in assay [5] is “inactive”. In addition, in assay [6], the “activity against mGlu8” value is “inactive”.

With `Brc1cccc(Oc2ncnc3ccc(Br)cc23)c1` [Compound 29], the “fold reduction of mGlu5 potency, secondary amine to ether” value in assay [1] is on record as “more than 50 fold”.

As to `Clc1ccc2ncnc(Oc3cccc(Br)c3)c2c1` [Compound 26], in assay [1], the “fold reduction of mGlu5 potency, secondary amine to ether” value is “more than 50 fold”.

Regarding `Clc1ccc2ncnc(Nc3cccc(Br)c3)c2c1` [Compound 13], the “activity against mGlu2” value in assay [2] is “inactive”. The “activity against mGlu7” value in assay [3] was “inactive”. Further, the “activity against mGlu3” value in assay [4] was “inactive”. The “activity against mGlu4” value in assay [5] is “inactive”. In addition, the “activity against mGlu8” value in assay [6] is “inactive”.

As to `FC(F)(F)c1cccc(Nc2ncnc3ccc(Br)cc23)c1` [Compound 6], in assay [1] (relative to 3-methylaniline 5), the “fold less potent at mGlu5 than 5” value turned out to be 7 fold.

Consider `Fc1ccc2ncnc(Nc3cccc(Br)c3)c2c1` [Compound 32], for which, in assay [2], the “activity against mGlu2” value is “inactive”. For the same molecule, in assay [3], the “activity against mGlu7” value is “inactive”. The “activity against mGlu3” value in assay [4] is “inactive”. Besides, the “activity against mGlu4” value in assay [5] is “inactive”. For the same molecule, the “activity against mGlu8” value in assay [6] was “inactive”.

Consider `Clc1cccc(Nc2ncnc3ccc(Cl)cc23)c1` [Compound 9], for which, in assay [7], the IC50 is 2700 nM.

For `CCc1cccc(Nc2ncnc3ccc(F)cc23)c1` [Compound 36], the “% Glu max” value in assay [1] (amplitude of response in the presence of 30 μM test compound as a percentage of maximal response (100 μM glutamate), average of n ≥ 3) is “weak potentiator”.

Source of the values: PMC2801349 (Bioorganic & medicinal chemistry letters, 2009).
